Test results taken from PubChem BioAssay (NCI).
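Values below derive from 48-hour exposures of cells grown in 96-well plates, with endpoints linearly interpolated between the two concentrations bracketing the appropriate inhibition level. GI50 marks 50% less growth. TGI is the concentration that stops growth completely.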

How the values were obtained:
Experiment in all cases: DTP human tumour cell line panel, 48 h
UACC-62 melanoma = test system: UACC-62 melanoma
DU-145 prostate = test system: DU-145 prostate
CCRF-CEM leukemia = test system: CCRF-CEM leukemia
CAKI-1 renal = test system: CAKI-1 renal
MDA-MB-435 = test system: MDA-MB-435
NCI/ADR-RES ovarian = test system: NCI/ADR-RES ovarian
SK-OV-3 ovarian = test system: SK-OV-3 ovarian
HT29 colon = test system: HT29 colon
SK-MEL-5 melanoma = test system: SK-MEL-5 melanoma
MOLT-4 leukemia = test system: MOLT-4 leukemia
SK-MEL-2 melanoma = test system: SK-MEL-2 melanoma
SW-620 colon = test system: SW-620 colon
K-562 leukemia = test system: K-562 leukemia
A498 renal = test system: A498 renal
HS 578T breast = test system: HS 578T breast
TK-10 renal = test system: TK-10 renal
SF-539 CNS = test system: SF-539 CNS
BT-549 breast = test system: BT-549 breast
NCI-H226 lung = test system: NCI-H226 lung
HOP-62 NSCLC = test system: HOP-62 NSCLC
UACC-257 melanoma = test system: UACC-257 melanoma
NCI-H23 lung = test system: NCI-H23 lung
T-47D breast = test system: T-47D breast
LOX IMVI melanoma = test system: LOX IMVI melanoma
SF-268 CNS = test system: SF-268 CNS
OVCAR-5 ovarian = test system: OVCAR-5 ovarian
SNB-75 CNS = test system: SNB-75 CNS
HCC-2998 colon = test system: HCC-2998 colon
786-0 renal = test system: 786-0 renal
M14 melanoma = test system: M14 melanoma
EKVX NSCLC = test system: EKVX NSCLC
HCT-116 colon = test system: HCT-116 colon
KM12 colon = test system: KM12 colon
RPMI-8226 leukemia = test system: RPMI-8226 leukemia
SF-295 CNS = test system: SF-295 CNS
U251 CNS = test system: U251 CNS
SNB-19 CNS = test system: SNB-19 CNS
COLO 205 colon = test system: COLO 205 colon
SK-MEL-28 melanoma = test system: SK-MEL-28 melanoma
HL-60(TB) leukemia = test system: HL-60(TB) leukemia
OVCAR-4 ovarian = test system: OVCAR-4 ovarian
HOP-92 NSCLC = test system: HOP-92 NSCLC
RXF 393 renal = test system: RXF 393 renal
NCI-H460 lung = test system: NCI-H460 lung
UO-31 renal = test system: UO-31 renal
HCT-15 colon = test system: HCT-15 colon
ACHN renal = test system: ACHN renal
OVCAR-3 ovarian = test system: OVCAR-3 ovarian
SR leukemia = test system: SR leukemia
MDA-MB-231 breast = test system: MDA-MB-231 breast
PC-3 prostate = test system: PC-3 prostate
IGROV1 ovarian = test system: IGROV1 ovarian
NCI-H522 lung = test system: NCI-H522 lung
OVCAR-8 ovarian = test system: OVCAR-8 ovarian
A549 NSCLC = test system: A549 NSCLC
MALME-3M melanoma = test system: MALME-3M melanoma
MCF7 breast = test system: MCF7 breast

SMILES: COc1ccc2c(CCCC(c3ccccc3)c3ccccc3)c3[n+](cc2c1OC)CCc1cc2c(cc1-3)OCO2
- GI50 (UACC-62 melanoma): 243 nM
- TGI (UACC-62 melanoma): 1060 nM
- GI50 (DU-145 prostate): 470 nM
- TGI (DU-145 prostate): 1720 nM
- GI50 (CCRF-CEM leukemia): 453 nM
- TGI (CCRF-CEM leukemia): 2560 nM
- GI50 (CAKI-1 renal): 2270 nM
- TGI (CAKI-1 renal): 6510 nM
- GI50 (MDA-MB-435): 293 nM
- TGI (MDA-MB-435): 1150 nM
- GI50 (NCI/ADR-RES ovarian): 4830 nM
- TGI (NCI/ADR-RES ovarian): 38900 nM
- GI50 (SK-OV-3 ovarian): 303 nM
- TGI (SK-OV-3 ovarian): 1050 nM
- GI50 (HT29 colon): 219 nM
- TGI (HT29 colon): 1170 nM
- GI50 (SK-MEL-5 melanoma): 149 nM
- TGI (SK-MEL-5 melanoma): 284 nM
- GI50 (MOLT-4 leukemia): 376 nM
- TGI (MOLT-4 leukemia): 2070 nM
- GI50 (SK-MEL-2 melanoma): 271 nM
- TGI (SK-MEL-2 melanoma): 1110 nM
- GI50 (SW-620 colon): 323 nM
- TGI (SW-620 colon): 1390 nM
- GI50 (K-562 leukemia): 318 nM
- TGI (K-562 leukemia): 1740 nM
- GI50 (A498 renal): 96.9 nM
- TGI (A498 renal): 996 nM
- GI50 (HS 578T breast): 370 nM
- TGI (HS 578T breast): 2100 nM
- GI50 (TK-10 renal): 324 nM
- TGI (TK-10 renal): 1290 nM

SMILES: C=C1C(=O)O[C@H]2[C@H]1CC/C(COC(=O)NCc1ccccc1OC)=C\CC[C@@]1(C)O[C@@H]21
- GI50 (SF-539 CNS): 1530 nM
- TGI (SF-539 CNS): 3040 nM
- GI50 (BT-549 breast): 1250 nM
- TGI (BT-549 breast): 2550 nM
- GI50 (DU-145 prostate): 698 nM
- TGI (DU-145 prostate): 1980 nM
- GI50 (NCI-H226 lung): 2110 nM
- TGI (NCI-H226 lung): 4960 nM
- GI50 (HOP-62 NSCLC): 3690 nM
- TGI (HOP-62 NSCLC): 14400 nM
- GI50 (UACC-257 melanoma): 1480 nM
- TGI (UACC-257 melanoma): 3510 nM
- GI50 (CCRF-CEM leukemia): 482 nM
- TGI (CCRF-CEM leukemia): 4700 nM
- GI50 (NCI-H23 lung): 1740 nM
- TGI (NCI-H23 lung): 4110 nM
- GI50 (T-47D breast): 2010 nM
- TGI (T-47D breast): 5700 nM
- GI50 (LOX IMVI melanoma): 1430 nM
- TGI (LOX IMVI melanoma): 2960 nM
- GI50 (SF-268 CNS): 2200 nM
- TGI (SF-268 CNS): 6740 nM
- GI50 (OVCAR-5 ovarian): 2290 nM
- TGI (OVCAR-5 ovarian): 5440 nM
- GI50 (CAKI-1 renal): 1380 nM
- TGI (CAKI-1 renal): 2770 nM
- GI50 (SNB-75 CNS): 2440 nM
- TGI (SNB-75 CNS): 13200 nM
- GI50 (HCC-2998 colon): 1820 nM
- TGI (HCC-2998 colon): 3520 nM
- GI50 (MDA-MB-435): 1700 nM
- TGI (MDA-MB-435): 4860 nM
- GI50 (NCI/ADR-RES ovarian): 2260 nM
- TGI (NCI/ADR-RES ovarian): 6120 nM
- GI50 (786-0 renal): 1160 nM
- TGI (786-0 renal): 2740 nM
- GI50 (M14 melanoma): 1100 nM
- TGI (M14 melanoma): 2560 nM
- GI50 (EKVX NSCLC): 1980 nM
- TGI (EKVX NSCLC): 6390 nM
- GI50 (SK-OV-3 ovarian): 13500 nM
- TGI (SK-OV-3 ovarian): 26800 nM
- GI50 (HCT-116 colon): 548 nM
- TGI (HCT-116 colon): 1860 nM
- GI50 (HT29 colon): 1220 nM
- TGI (HT29 colon): 3430 nM
- GI50 (SK-MEL-5 melanoma): 2860 nM
- TGI (SK-MEL-5 melanoma): 8030 nM
- GI50 (KM12 colon): 3530 nM
- TGI (KM12 colon): 13600 nM
- GI50 (MOLT-4 leukemia): 2530 nM
- TGI (MOLT-4 leukemia): 6130 nM
- GI50 (RPMI-8226 leukemia): 1770 nM
- TGI (RPMI-8226 leukemia): 6240 nM
- GI50 (SF-295 CNS): 5020 nM
- TGI (SF-295 CNS): 18800 nM
- GI50 (U251 CNS): 2200 nM
- TGI (U251 CNS): 6850 nM
- GI50 (SNB-19 CNS): 1570 nM
- TGI (SNB-19 CNS): 3470 nM
- GI50 (COLO 205 colon): 1750 nM
- TGI (COLO 205 colon): 3720 nM
- GI50 (SK-MEL-28 melanoma): 1520 nM
- TGI (SK-MEL-28 melanoma): 3610 nM
- GI50 (HL-60(TB) leukemia): 1610 nM
- TGI (HL-60(TB) leukemia): 5770 nM
- GI50 (OVCAR-4 ovarian): 1780 nM
- TGI (OVCAR-4 ovarian): 4920 nM
- GI50 (HOP-92 NSCLC): 1490 nM
- TGI (HOP-92 NSCLC): 3720 nM
- GI50 (SK-MEL-2 melanoma): 1710 nM
- TGI (SK-MEL-2 melanoma): 3890 nM
- GI50 (SW-620 colon): 768 nM
- TGI (SW-620 colon): 3160 nM
- GI50 (RXF 393 renal): 1040 nM
- TGI (RXF 393 renal): 2570 nM
- GI50 (NCI-H460 lung): 3730 nM
- TGI (NCI-H460 lung): 14600 nM
- GI50 (UO-31 renal): 1680 nM
- TGI (UO-31 renal): 3180 nM
- GI50 (HCT-15 colon): 1040 nM
- TGI (HCT-15 colon): 2470 nM
- GI50 (ACHN renal): 1270 nM
- TGI (ACHN renal): 2850 nM
- GI50 (K-562 leukemia): 821 nM
- TGI (K-562 leukemia): 6070 nM
- GI50 (OVCAR-3 ovarian): 872 nM
- TGI (OVCAR-3 ovarian): 2420 nM
- GI50 (SR leukemia): 679 nM
- TGI (SR leukemia): 5190 nM
- GI50 (MDA-MB-231 breast): 1470 nM
- TGI (MDA-MB-231 breast): 3490 nM
- GI50 (PC-3 prostate): 3130 nM
- TGI (PC-3 prostate): 10600 nM
- GI50 (A498 renal): 3230 nM
- TGI (A498 renal): 8530 nM
- GI50 (IGROV1 ovarian): 1570 nM
- TGI (IGROV1 ovarian): 4360 nM
- GI50 (NCI-H522 lung): 351 nM
- TGI (NCI-H522 lung): 1920 nM
- GI50 (OVCAR-8 ovarian): 2450 nM
- TGI (OVCAR-8 ovarian): 8380 nM
- GI50 (A549 NSCLC): 3070 nM
- TGI (A549 NSCLC): 11800 nM
- GI50 (MALME-3M melanoma): 1890 nM
- TGI (MALME-3M melanoma): 3980 nM
- GI50 (HS 578T breast): 3400 nM
- TGI (HS 578T breast): 19000 nM
- GI50 (TK-10 renal): 1790 nM
- TGI (TK-10 renal): 3480 nM

SMILES: Nc1nc(Cl)cc(OCC2(O)CC(COC(=O)c3ccccc3)C2)n1 (configuration not stated)
- GI50 (NCI-H226 lung): 81000 nM
- GI50 (CCRF-CEM leukemia): 47900 nM
- GI50 (MCF7 breast): 47700 nM
- GI50 (NCI-H23 lung): 51800 nM
- GI50 (T-47D breast): 30700 nM
- GI50 (LOX IMVI melanoma): 76100 nM
- GI50 (SNB-75 CNS): 53000 nM
- GI50 (NCI/ADR-RES ovarian): 39500 nM
- GI50 (EKVX NSCLC): 13200 nM
- GI50 (HCT-116 colon): 82900 nM
- GI50 (HT29 colon): 70000 nM
- GI50 (SK-MEL-5 melanoma): 37300 nM
- GI50 (KM12 colon): 30600 nM
- GI50 (MOLT-4 leukemia): 26900 nM
- TGI (MOLT-4 leukemia): 83700 nM
- GI50 (RPMI-8226 leukemia): 85500 nM
- GI50 (SF-295 CNS): 78500 nM
- GI50 (U251 CNS): 76100 nM
- GI50 (SNB-19 CNS): 34100 nM
- GI50 (COLO 205 colon): 46600 nM
- GI50 (HL-60(TB) leukemia): 58400 nM
- GI50 (OVCAR-4 ovarian): 38200 nM
- GI50 (UO-31 renal): 91500 nM
- GI50 (K-562 leukemia): 40300 nM
- GI50 (OVCAR-3 ovarian): 82200 nM
- GI50 (SR leukemia): 32100 nM
- GI50 (MDA-MB-231 breast): 48100 nM
- GI50 (OVCAR-8 ovarian): 71000 nM
- GI50 (A549 NSCLC): 67800 nM
- GI50 (HS 578T breast): 46600 nM
